Reference: article PMC4386068 (Journal of chemical information and modeling, 2015)

Molecular target: InhA (Mtb enoyl-acyl-carrier-protein reductase) (Mycobacterium tuberculosis, UniProt P9WGR1)
Assay: InhA enzyme inhibition assay, % inhibition at […] without pre-incubation
Type: biochemical
Settings: read-out: % inhibition at 100 nM

InhA (Mtb enoyl-acyl-carrier-protein reductase), sequence (P9WGR1 whole entry, looked up): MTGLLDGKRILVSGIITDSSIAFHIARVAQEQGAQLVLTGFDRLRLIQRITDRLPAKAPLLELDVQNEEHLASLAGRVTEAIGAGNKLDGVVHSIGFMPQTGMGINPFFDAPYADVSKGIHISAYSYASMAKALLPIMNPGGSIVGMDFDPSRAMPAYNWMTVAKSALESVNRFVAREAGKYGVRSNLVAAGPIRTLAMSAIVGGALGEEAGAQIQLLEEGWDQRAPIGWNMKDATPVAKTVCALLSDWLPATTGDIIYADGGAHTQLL

SMILES: CCCCCCc1ccc(Oc2ccccc2C)c(O)c1 [PT70]
- inhibition at 0.1 µM: 75%
